In patent US7767789B2, “Truncated proteins as cancer markers” (University Hopitals of Cleveland, priority 2005, dated 2010):
Residues, ends and D or L forms follow the SMILES beside them. *: point of attachment. Cbz = O=C(OCc1ccccc1)*; CH2F = FC*

What was measured:
CaSki cells [1] = test: DNA solubilization assay (apoptosis); assay type: cell-based, human; conditions: for BzATP-induced DNA solubilization after pretreatment: 100 μM BzATP 9 h, 24 h 2 nM epinephrine ± 0.2 nm EGF, zVAD-FMK 30 min before, 50 /ZM; for effect on zinterol (1 μM)-induced inhibition of BzATP-induced apoptosis: cotreatment 24 h: 10 μM propranolol, 100 nM ICI 118,551, 30 μM H-89 dihydrochloride; for effect on BzATP-induced apoptosis (DNA solubilization): pretreatment: EGF 0.2 nM, zinterol/terbutaline 1 μM 24 h, forskolin 10 μM 14 h with IBMX, isoproterenol 10 μM, phenylephrine 100 μM
Description: Twenty-four hours before the end of the experiment, cells were labeled with [^3H]thymidine (specific activity, 93 Ci/mmol; 5 μCi/1×10^6 cells) for 16 h. The medium was removed, and cells were washed three times with fresh medium lacking [^3H]thymidine and were incubated in the same medium for an additional 6 h. At the end of incubation, the supernatant was stored, and cells were lysed in 0.5 ml lysis buffer (10 mM Tris-HCl, pH 7.5; plus 1 mM EDTA-0.2% Triton X-100) for 1 h at 4° C. The intact chromatin was separated from the fragmented DNA by 5 min centrifugation at 4° C. in Eppendorf microcentrifuge at 12,000×g. The supernatant (lysate) was stored, while the pellet was resuspended in 0.5 ml of 1% sodium dodecyl sulfate (SDS). The radioactivity contained in the supernatants, lysates; and pellets was counted in a scintillation counter, and DNA fragmentation was calculated as: [% Solubilized DNA]=([cpm supernatant+cpm lysates]/[cpm supernatant+cpm lysate+cpm pellet])×100.

CaSki cells [2] = test: Number of CaSki cells in culture; assay type: cell-based, human; conditions: serum-free; 0.2 nM EGF, 2 nM epinephrine, or both, 24 h
Description: Near-confluent cultures of CaSki cells on filters were shifted for 14 hours to serum-free medium supplemented with 1% BSA and were treated in the same medium with 0.2 nM EGF, 2 nM epinephrine, or both for an additional 24 h. At the completion of treatments, cells were harvested off the filters and counted.

[3] = molecular target: T1, full-length human P2X7 receptor (HEK-293-hP2X7-R cells) (Homo sapiens, UniProt Q99572); test: Cytosolic calcium in HEK-293-hP2X7-R and wild-type HEK293 cells on filters; assay type: cell-based
T1 construct: For transfections, the full length human P2X7 receptor; expressed in transfected cells; host or cells: HEK-293, pcDNA-6 vector
T1 sequence (Q99572 1-595): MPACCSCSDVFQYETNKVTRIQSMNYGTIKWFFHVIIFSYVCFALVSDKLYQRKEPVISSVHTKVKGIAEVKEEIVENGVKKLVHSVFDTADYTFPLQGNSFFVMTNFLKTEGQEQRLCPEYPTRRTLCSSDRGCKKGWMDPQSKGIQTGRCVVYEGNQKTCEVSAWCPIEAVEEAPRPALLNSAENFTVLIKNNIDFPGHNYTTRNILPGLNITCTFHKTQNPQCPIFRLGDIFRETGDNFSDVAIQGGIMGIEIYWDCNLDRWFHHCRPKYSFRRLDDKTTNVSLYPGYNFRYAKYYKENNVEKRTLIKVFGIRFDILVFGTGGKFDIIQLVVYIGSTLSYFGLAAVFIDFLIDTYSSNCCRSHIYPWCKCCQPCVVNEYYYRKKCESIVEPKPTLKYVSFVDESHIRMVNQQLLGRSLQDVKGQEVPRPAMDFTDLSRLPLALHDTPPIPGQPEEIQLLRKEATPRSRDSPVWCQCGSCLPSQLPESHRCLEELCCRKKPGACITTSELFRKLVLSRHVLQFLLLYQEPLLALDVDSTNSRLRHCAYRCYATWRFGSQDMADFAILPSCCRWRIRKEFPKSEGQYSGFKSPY

[4] = molecular target: T1, full-length human P2X7 receptor (HEK-293-hP2X7-R cells); test: Ethidium bromide influx in HEK-293-hP2X7-R and wild-type HEK293 cells on filters; assay type: cell-based
[5] = tested on: β-arrestin-2-GFP in HEK-293-hP2X7-R cells; test: Real-time confocal microscopy of β-arrestin-2-GFP, HEK-293 cells; assay type: cell-based, human
Description: (§1) CaSki cells transfected with the β-arrestin-2-GFP, or HEK-293 cells co-transfected with the full-length human P2X7-receptor and the β-arrestin-2-GFP were plated on 35-mm glass-bottom culture dishes (MatTek Corporation, Ashland, MA). Dishes contained a centered, 1 cm well formed from a glass coverslip sealed hole in the plastic. Two hours before experiments the medium was replaced with serum-free medium supplemented with 10 mM HEPES. The distribution of the β-arrestin-2-GFP was visualized before and after treatment with the agonist by real-time confocal microscopy. Imaging of the β-arrestin-2-GFP fluorescence in the same cells was performed on a Zeiss laser-scanning confocal microscope (LSM-510) using a heated (37° C.) microscope stage. Barak et al., “A beta-arrestin/green fluorescent protein biosensor for detecting G protein-coupled receptor activation” J Biol Chem 272:27497-27500 (1997).
(§2) Images were collected sequentially before and after treatment with agonist for 0-30 min at 37° C. using single line excitation (488 nm).

[6] = tested on: α-adrenoceptors (CaSki cells); test: Binding studies, α-adrenoceptor radioligands; parameters: species or system human; conditions: not shown
Description: Binding studies of the adrenoceptors and the EGF receptor used a similar method. Two hundred fifty microliters of binding medium (serum-free DMEM, 0.1% BSA, 10 mM HEPES) containing […] of the radioligand were added to the apical container of the filter, and 500/μl of the same solution to the basolateral container; parallel tubes contained an additional 200-fold excess radioinert ligand. The cells were then incubated at 4° C. for 3 h; at the completion of incubations cells were washed three times with ice-cold HBSS containing 0.1% BSA. Cells were solubilized in 0.2 N NaOH, and the bound ligand was separated on glass fiber filters (Whatman, GF/C, Tonawanda, N.Y.) by vacuum filtration. The associated radioligand was counted either in a β-scintillation counter (for [^3H] associated ligands) or in a γ-counter (for 125I] associated ligands). […] (all at 1 μCi/ml; specific activity, about 90 Ci/mmo]; Amersham), and [^125I]EGF (5 μCi/ml; specific activity, about 100 Ci/mmol; Biomedical Technology, Stoughton, Mass.). […] Human recombinant EGF was from R&D Systems (Minneapolis, Minn.). Specific receptor binding was expressed per milligram DNA, and data were analyzed by Scatchard plot.

[7] = molecular target: T2, β2-adrenoceptor (CaSki cells) (Homo sapiens, UniProt P07550); test: Binding studies, β-adrenoceptor radioligand
T2 construct: endogenous in cells; host or cells: CaSki cells on filters (intact cells, 4 °C)
T2 sequence (P07550 whole entry): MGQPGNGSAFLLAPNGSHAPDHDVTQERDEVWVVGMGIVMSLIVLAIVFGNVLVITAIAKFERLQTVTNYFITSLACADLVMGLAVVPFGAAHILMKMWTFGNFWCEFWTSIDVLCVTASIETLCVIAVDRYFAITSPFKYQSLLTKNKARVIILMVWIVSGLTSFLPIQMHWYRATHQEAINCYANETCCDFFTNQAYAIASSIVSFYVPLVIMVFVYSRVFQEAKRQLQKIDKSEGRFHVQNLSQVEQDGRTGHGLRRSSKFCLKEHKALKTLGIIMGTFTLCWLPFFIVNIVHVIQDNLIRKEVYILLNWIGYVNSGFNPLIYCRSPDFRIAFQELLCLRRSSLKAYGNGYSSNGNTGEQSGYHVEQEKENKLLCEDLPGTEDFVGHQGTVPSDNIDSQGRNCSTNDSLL

[8] = tested on: hECEs, ECE16-1, HT3, CaSki, SiHa and Hela cells; conditions: cited from earlier work
[9] = tested on: β-arrestin-2-GFP in CaSki cells; test: Real-time confocal microscopy of β-arrestin-2-GFP, CaSki cells; assay type: cell-based, human; conditions: CaSki transfected with β-arrestin-2-GFP; 250 μM ATP
Description: as §1, §2

[10] = molecular target: P2X7 receptor (HEK-293-hP2X7-R cells) (Homo sapiens, UniProt Q99572)
[11] = HEK-293-hP2X7-R with β-arrestin-2-GFP, 10 μM angiotensin, 10 μM UTP

TNFα
DNA solubilization (CaSki cells [1]; 100 μM BzATP for 9 h or 10 μM TNFα for 14 h): significantly increased DNA solubilization

CNC[C@H](O)c1ccc(O)c(O)c1 [epinephrine]
BzATP-induced DNA solubilization after pretreatment (CaSki cells [1]): 4.6% | number of cells in culture (CaSki cells [2]): increased the number of cells in culture

Nc1ncnc2c1ncn2[C@@H](C=O)O[C@@H](C=O)COP(=O)(O)OP(=O)(O)OP(=O)(O)O [oATP, oxidized ATP]
effect on ATP/BzATP-induced sustained calcium increase [3]: inhibited | effect on ATP/BzATP-induced influx of ethidium bromide [4]: inhibited

Cc1ccc(OCC(O)C(C)NC(C)C)c2c1CCC2 (stereo not shown) [ICI 118,551]
effect on zinterol (1 μM)-induced inhibition of BzATP-induced apoptosis (CaSki cells [1]): blocked

O=c1ccn([C@@H]2O[C@H](COP(=O)(O)OP(=O)(O)OP(=O)(O)O)[C@@H](O)[C@H]2O)c(=O)[nH]1 [UTP]
effect on cytosolic calcium levels ([3]; not shown): nor did the nucleotide UTP have any appreciable effect | effect on the GFP fluorescence [5, 11]: Neither angiotensin, nor UTP, had a significant effect

angiotensin
effect on the GFP fluorescence [5, 11]: Neither angiotensin, nor UTP, had a significant effect

CC(C)NCC(O)c1ccc(O)c(O)c1 (stereo not shown) [isoproterenol]
effect on BzATP-induced apoptosis (DNA solubilization) (CaSki cells [1]): no effect

CC(C)(C)NCC(O)c1cc(O)cc(O)c1 (stereo not shown) [terbutaline]
effect on BzATP-induced apoptosis (DNA solubilization) (CaSki cells [1]): inhibited

[^3H]tamsulosin
specific binding [6]: no specific binding

CC(C)(C)NCC(O)COc1cccc2[nH]c(C#N)c([125I])c12 (stereo not shown) [[^125I]cyanopindolol]
binding activity [7]: about 15 fmol/mg DNA | binding activity as receptors per cell [7]: ~10,000 receptors/cell

CN([C@@H](Cc1ccc(OS(=O)(=O)c2cccc3cnccc23)cc1)C(=O)N1CCN(c2ccccc2)CC1)S(=O)(=O)c1cccc2cnccc12 [KN-62, 1-[N,O-bis(5-isoquinolinesulfonyl)-N-methyl-L-tyrosyl]-4-phenylpiperazine]
effect on ATP/BzATP-induced sustained calcium increase [3]: inhibited | effect on ATP/BzATP-induced influx of ethidium bromide [4]: inhibited

CC(C)NCC(O)COc1cccc2ccccc12 (stereo not shown) [propranolol]
effect on zinterol (1 μM)-induced inhibition of BzATP-induced apoptosis (CaSki cells [1]): blocked

COc1cc2nc(N3CCN(C(=O)c4ccco4)CC3)nc(N)c2cc1OC [[^3H]prazosin]
specific binding [6]: no specific binding

Cl.Cl.O=S(=O)(NCCNC/C=C/c1ccc(Br)cc1)c1cccc2cnccc12 [H-89 dihydrochloride]
effect on zinterol (1 μM)-induced inhibition of BzATP-induced apoptosis (CaSki cells [1]): blocked

C[C@]12CC[C@@H]3c4ccc(O)cc4C[C@@H](CCCCCCCCC[S+]([O-])CCCC(F)(F)C(F)(F)F)[C@H]3[C@@H]1CC[C@@H]2O (stereo partly shown) [ICI-182780]
inhibition of the estrogen antiapoptotic action [8]: lack of inhibition

CC(C)(Cc1ccccc1)NCC(O)c1ccc(O)c(NS(C)(=O)=O)c1 (stereo not shown) [zinterol]
effect on TNFα-induced increase in DNA solubilization (CaSki cells [1]; pretreatment 24 h: 1 μM zinterol or 0.2 nM EGF): no effect | effect on BzATP-induced apoptosis (DNA solubilization) (CaSki cells [1]): inhibited

CC(=O)[C@H]1CC[C@H]2[C@@H]3CCC4=CC(=O)CC[C@]4(C)[C@H]3CC[C@]12C [progesterone]
inhibition of the estrogen antiapoptotic action [8]: lack of inhibition

COC(=O)C[C@H](NC(=O)[C@H](C)NC(=O)[C@@H](NC(=O)OCc1ccccc1)C(C)C)C(=O)CF [zVAD-FMK, Benzyloxy-vallne-alardne-aspartate-O-methylfluoromethylketone] (Cbz-Val-Ala-Asp(OMe)-CH2F)
BzATP-induced DNA solubilization after pretreatment (CaSki cells [1]): about 1.4%

CC/C(=C(\c1ccccc1)c1ccc(OCCN(C)C)cc1)c1ccccc1 [tamoxifen]
inhibition of the estrogen antiapoptotic action [8]: lack of inhibition

CNC[C@H](O)c1cccc(O)c1 [phenylephrine]
effect on BzATP-induced apoptosis (DNA solubilization) (CaSki cells [1]): no effect

Nc1ncnc2c1ncn2[C@@H]1O[C@H](COP(=O)(O)OP(=O)(O)OP(=O)(O)O)[C@@H](O)[C@H]1O [ATP, adenosine triphosphate]
time to re-distribution of GFP fluorescence towards cell periphery [9]: ≤ 3 min | Cai transients [3]: did not induce Cai transients | sustained cytosolic calcium increase [3]: induced sustained Ci increase | time to redistribution of the GFP fluorescence towards cell periphery ([5]; HEK-293-hP2X7-R co-transfected with β-arrestin-2-GFP, 250 μM ATP): ≤ 5 min | duration of redistribution effect ([5]; HEK-293-hP2X7-R with β-arrestin-2-GFP, 250 μM ATP): at least 10 minutes | effect on the GFP fluorescence ([5]; HEK-293 cells transfected with only β-arrestin-2-GFP, 250 μM ATP): no significant effect | 65 KDa and 18 KDa forms in the cytosol ([10]; HEK-293-hP2X7-R cells): biphasic change | 18 KDa form in the membrane-enriched fraction ([10]; HEK-293-hP2X7-R, began 10 min after treatment): gradual increase
